Source: the NIST ThermoML archive (doi:10.1016/j.jct.2008.02.005)
Numbers after ± are expanded uncertainties.

Legend:
[1] = 101 kPa, Liquid; for viscosity: Capillary tube (Ostwald / Ubbelohde) method; for speed of sound: Sing-around technique in a fixed-path interferometer
[2] = xn = mol fraction of the nth substance listed; settings: 101 kPa, Liquid, x2 = 0; for viscosity: Capillary tube (Ostwald / Ubbelohde) method; for speed of sound: Sing-around technique in a fixed-path interferometer

Row | mass density ([1]; 298.15 K) | viscosity ([1]; 298.15 K) | speed of sound ([1]; 298.15 K) | mass density ([1]; 303.15 K) | speed of sound ([1]; 303.15 K) | mass density ([1]; 308.15 K) | speed of sound ([1]; 308.15 K) | viscosity ([2]; 298.15 K) | speed of sound ([2]; 298.15 K) | mass density ([2]; 298.15 K) | speed of sound ([2]; 303.15 K) | mass density ([2]; 303.15 K) | speed of sound ([2]; 308.15 K) | mass density ([2]; 308.15 K) | SMILES
1 | 726.806 ± 1.7 kg/m3 | 0.852 ± 0.015 mPa·s | 1234.8 ± 3.1 m/s | 723.042 ± 1.7 kg/m3 | 1215.2 ± 3.1 m/s | 719.23 ± 1.7 kg/m3 | 1195.6 ± 3.1 m/s |  |  |  |  |  |  |  | CCCCCCCCCC [decane]
2 |  |  |  |  |  |  |  | 0.852 ± 0.015 mPa·s | 1234.8 ± 3.1 m/s | 726.806 ± 1.7 kg/m3 | 1215.2 ± 3.1 m/s | 723.042 ± 1.7 kg/m3 | 1195.6 ± 3.1 m/s | 719.23 ± 1.7 kg/m3 | CCCCCCCCCC [decane] + CCCCCCCCO
3 | 655.072 ± 0.92 kg/m3 | 0.313 ± 0.007 mPa·s | 1077.8 ± 1.2 m/s | 650.369 ± 0.92 kg/m3 | 1055.2 ± 1.2 m/s | 645.767 ± 0.93 kg/m3 | 1032.9 ± 1.1 m/s |  |  |  |  |  |  |  | CCCCCC [hexane]
4 |  |  |  |  |  |  |  | 0.313 ± 0.007 mPa·s | 1077.8 ± 1.2 m/s | 655.072 ± 0.92 kg/m3 | 1055.2 ± 1.2 m/s | 650.369 ± 0.92 kg/m3 | 1032.9 ± 1.1 m/s | 645.767 ± 0.93 kg/m3 | CCCCCC [hexane] + CCCCCCCCO
5 | 821.813 ± 0.54 kg/m3 | 7.508 ± 0.042 mPa·s | 1348 ± 0.8 m/s | 818.796 ± 0.54 kg/m3 | 1330.8 ± 0.8 m/s | 815.286 ± 0.55 kg/m3 | 1314.1 ± 0.8 m/s |  |  |  |  |  |  |  | CCCCCCCCO [octan-1-ol]
6 | 698.58 ± 0.77 kg/m3 | 0.518 ± 0.007 mPa·s | 1172.7 ± 0.8 m/s | 694.497 ± 0.78 kg/m3 | 1152.1 ± 0.8 m/s | 690.416 ± 0.78 kg/m3 | 1131.7 ± 0.8 m/s |  |  |  |  |  |  |  | CCCCCCCC [octane]
7 |  |  |  |  |  |  |  | 0.518 ± 0.007 mPa·s | 1172.7 ± 0.8 m/s | 698.58 ± 0.77 kg/m3 | 1152.1 ± 0.8 m/s | 694.497 ± 0.78 kg/m3 | 1131.7 ± 0.8 m/s | 690.416 ± 0.78 kg/m3 | CCCCCCCC [octane] + CCCCCCCCO
